In paper PMC12817919 (Journal of Virology, 2025):
Where two headings read alike, the source gives them in different places.

Columns and labels:
RSV A2 [1] = test: microbe, parasite or virus in culture; assay type: cell-based; conditions: human respiratory syncytial virus; HEp-2 (RSV A2, MOI = 0.2), 72 h, FFA
[2] = tested on: DS-Cav1 mutants (T335I, K394R, S398L, K399N, T400A, and D401E); assay type: binding; conditions: D401E compared with DS-Cav1
RSV F protein mutants = test: GFP-split cell-cell fusion assay mediated by transfected F or F mutants; assay type: cell-based, respiratory syncytial virus (RSV); conditions: 5, 1, 0.5 µM, 24 h, HEK293T GFP-split cells
Experimental: (§1) Cell–cell fusion assays were performed using a split-GFP system (GFP1-10 and GFP11) ([76]). Briefly, HEK293T cells stably expressing GFP1-10 were transfected with 1,000 ng of plasmids encoding either wild-type F or F mutants containing various amino acid substitutions. Alternatively, the cells were infected with RSV and treated with 0.1% DMSO or the indicated compounds at concentrations of 5, 1, and 0.5 µM. Then, the transfected or infected cells were co-cultured with HEK293T cells stably expressing GFP11 at a 1:1 ratio (8 × 10^4 cells/well) for 24 h in a 96-well plate. Images were acquired per well on an Operetta CLS High-Content Screening System (PerkinElmer).

RSV T400I = assay type: cell-based, respiratory syncytial virus (RSV)
RSV L141F = assay type: cell-based, respiratory syncytial virus (RSV)
in vitro = assay type: cell-based; conditions: human; HEp-2 cells, 72 h, CCK8
Experimental: HEp-2 cells (1.3 × 10^4) were seeded in 96-well plates for 20 h. The indicated compounds in a 3-fold dilution series were added to the cells, and three wells were performed in parallel. After 72 h, the cells were incubated with DMEM containing 10% FBS and CCK8 reagent (Beyotime Biotechnology, cat#C0038) for 30 min at 37°C. The absorbance at 450 nm and 600 nm was read using the PerkinElmer EnSight reader.

RSV ON1 = test: microbe, parasite or virus in culture; assay type: cell-based; conditions: human respiratory syncytial virus; HEp-2 (RSV ON1, MOI = 0.2), 72 h, FFA
RSV ON1 P18 (Control) = test: Antiviral activity against passaged virus in HEp-2 cells (FFA); assay type: cell-based, respiratory syncytial virus (RSV); conditions: human respiratory syncytial virus, HEp-2, MOI 0.2, FFA
wild-type RSV = test: microbe, parasite or virus in culture; assay type: cell-based
RSV T400A = assay type: cell-based, respiratory syncytial virus (RSV); conditions: for Fold resistance (RSV T400A): fold change in the EC50 relative to that of wild-type RSV
RSV F488L = assay type: cell-based, respiratory syncytial virus (RSV)
RSV = conditions: oral administration; cited from earlier work
RSV K399N = assay type: cell-based, respiratory syncytial virus (RSV); conditions: for Fold resistance (RSV K399N): fold change in the EC50 relative to that of wild-type RSV
RSV K394R = assay type: cell-based, respiratory syncytial virus (RSV); conditions: for Fold resistance (RSV K394R): fold change in the EC50 relative to that of wild-type RSV
[3] = tested on: Lonafarnib escape virus populations P18 (RSV ON1); test: Antiviral activity against passaged virus in HEp-2 cells (FFA); assay type: cell-based, respiratory syncytial virus (RSV); conditions: human respiratory syncytial virus, HEp-2, MOI 0.2, FFA
RSV V127G = assay type: cell-based, respiratory syncytial virus (RSV)
RSV A2 P18 (Control) = test: Antiviral activity against passaged virus in HEp-2 cells (FFA); assay type: cell-based, respiratory syncytial virus (RSV); conditions: human respiratory syncytial virus, HEp-2, MOI 0.2, FFA
RSV F protein [4] = target: T1, RSV F protein (Human respiratory syncytial virus A, UniProt P03420); assay type: cell-based; set-up: expressed in transfected cells; host or cells: HEK293T; conditions: HEK293T cells expressing RSV F, western blot
Target sequence in this assay (P03420 137-574): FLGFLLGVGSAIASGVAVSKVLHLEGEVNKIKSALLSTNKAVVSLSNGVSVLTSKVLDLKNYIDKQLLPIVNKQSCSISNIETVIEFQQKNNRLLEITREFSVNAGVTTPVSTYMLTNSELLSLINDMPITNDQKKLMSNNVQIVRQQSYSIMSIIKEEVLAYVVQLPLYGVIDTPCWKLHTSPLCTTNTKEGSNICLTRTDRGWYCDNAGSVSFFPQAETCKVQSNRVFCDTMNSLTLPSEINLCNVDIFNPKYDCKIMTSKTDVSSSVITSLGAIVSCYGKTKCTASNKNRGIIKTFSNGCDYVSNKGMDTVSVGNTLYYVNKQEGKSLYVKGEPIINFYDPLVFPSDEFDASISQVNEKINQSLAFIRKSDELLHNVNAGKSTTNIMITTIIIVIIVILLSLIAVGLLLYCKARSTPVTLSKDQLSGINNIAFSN
Target sequence in this assay (P03420 26-109): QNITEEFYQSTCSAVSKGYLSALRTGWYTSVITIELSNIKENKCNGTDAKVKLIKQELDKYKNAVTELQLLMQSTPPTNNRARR

[5] = tested on: Lonafarnib escape virus populations P18 (RSV A2); test: Antiviral activity against passaged virus in HEp-2 cells (FFA); assay type: cell-based, respiratory syncytial virus (RSV); conditions: human respiratory syncytial virus, HEp-2, MOI 0.2, FFA
RSV ON1-GFP [6] = test: Antiviral efficacy in primary human bronchial epithelial cells (GFP intensity); assay type: cell-based, respiratory syncytial virus (RSV); conditions: HBECs, MOI 2, 1 µM, 72 h
Experimental: The inhibitory effects of compounds on RSV ON1-GFP were evaluated in HBEC. […] At 72 h post-infection, the infected cells were visualized using an EVOS M5000 Cell Imaging System (Thermo Fisher Scientific).

RSV ON1-GFP [7] = test: Antiviral drug assay using lung airway organoids; conditions: 96 h, MOI 1
From the text: In brief, HBECs were initially cultured in PneumaCult-Ex Plus Medium ([sequence] Technologies, cat#05040), then seeded at 2 × 10⁵ cells/well into anti-adherence rinsing solution ([sequence] Technologies, cat#07010)-treated AggreWell400 24-well plates ([sequence] Technologies, cat#34415). They were maintained in PneumaCult Apical-Out Airway Organoid Medium ([sequence] Technologies, cat#100-0620) for 6 days. Subsequently, the cells were transferred to similarly treated flat-bottom 24-well plates and cultured in the same medium for an additional 9 days.
The airway organoids were infected with RSV ON1-GFP at an MOI of 1 for 4 h. […] At 96 h post-infection, cell-free medium was harvested, and a TCID50 assay was performed to determine the viral titer. The organoids were fixed in parallel in 4% PFA, permeabilized with 0.5% Triton X-100 (1 h), blocked with 5% BSA (Macklin, cat#B824162; 2 h), and incubated overnight at 4°C with primary antibodies: Goat anti-Human p63/TP73L polyclonal antibody (R&D Systems, cat#AF1916), Rabbit anti-Human Mucin 5AC polyclonal antibody (Abways, cat#CY6826), and Mouse anti-acetylated tubulin monoclonal antibody (Sigma-Aldrich, cat#T7451). […] The GFP fluorescence intensity was quantified using ImageJ analysis software (RRID: SCR_003070; National Institutes of Health, NIH).

RSV A2 [8] = test: GFP-split cell-cell fusion assay mediated by RSV infection; assay type: cell-based, respiratory syncytial virus (RSV); conditions: RSV A2 MOI 1; 5, 1, 0.5 µM, 24 h, HEK293T GFP-split cells
Experimental: as §1

RSV F protein [9] = target: T1, RSV F protein; assay type: cell-based; set-up: HEp-2 cells were infected with RSV (MOI = 10); endogenous in cells; host or cells: HEp-2 cells infected with RSV (viral protein made in the infected cell); conditions: HEp-2, RSV MOI 10, 1 µM, 18 h
Target sequence in this assay (P03420 137-574): as the sequence (P03420 137-574) above
Target sequence in this assay (Q96SW2 whole entry, further chain): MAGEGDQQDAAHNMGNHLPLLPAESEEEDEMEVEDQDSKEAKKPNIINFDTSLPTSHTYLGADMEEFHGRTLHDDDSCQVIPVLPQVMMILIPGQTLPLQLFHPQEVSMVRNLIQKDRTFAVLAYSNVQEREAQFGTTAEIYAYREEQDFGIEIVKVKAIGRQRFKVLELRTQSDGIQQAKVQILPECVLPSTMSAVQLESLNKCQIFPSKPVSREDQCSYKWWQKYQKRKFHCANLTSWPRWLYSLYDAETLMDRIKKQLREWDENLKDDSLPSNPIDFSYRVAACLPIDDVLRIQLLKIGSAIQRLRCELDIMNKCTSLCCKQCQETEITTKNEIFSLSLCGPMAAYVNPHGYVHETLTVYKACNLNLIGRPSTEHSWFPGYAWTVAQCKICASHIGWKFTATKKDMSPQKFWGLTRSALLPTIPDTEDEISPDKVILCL
Target sequence in this assay (P03420 26-109): as the sequence (P03420 26-109) above

[10] = human respiratory syncytial virus, wild-type RSV, Table 2 cross-resistance experiment, HEp-2, read-out: EC50 RSV
[11] = Table 2 cross-resistance experiment, HEp-2, read-out: EC50 RSV T400A
[12] = Table 2 cross-resistance experiment, HEp-2, read-out: EC50 RSV K399N
[13] = Table 2 cross-resistance experiment, HEp-2, read-out: EC50 RSV K394R

NC(=O)N1CCC(CC(=O)N2CCC([C@H]3c4ncc(Br)cc4CCc4cc(Cl)cc(Br)c43)CC2)CC1 [Lonafarnib]
EC50 (RSV A2 [1]): 40 ± 2 nM | binding affinity for lonafarnib (SPR) [2]: significantly decreased the binding affinity | inhibition of mutant-induced cell-cell fusion activity (RSV F protein mutants; T335I, S398L, K394R, K399I/N, T400A/I, and D401E mutants): did not or only slightly inhibit | inhibition of mutant-induced cell-cell fusion activity (RSV F protein mutants; V76A, K80N, L119I, and D392G/N mutants): significantly inhibited | EC90 (RSV T400I; EC90 = 9^1/HillSlope*EC50): 4.61 ± 0.663 µM | EC50 (RSV T400I; HEp-2, MOI 0.2, 3 days, FFA): 1510 ± 184 nM | EC90 (RSV L141F; EC90 = 9^1/HillSlope*EC50): 631 ± 125 nM | EC50 (RSV L141F; HEp-2, MOI 0.2, 3 days, FFA): 79 ± 19 nM | CC50 (in vitro): 17.9 ± 1.13 µM | EC50 (RSV ON1): 60 ± 20 nM | EC50 (RSV ON1 P18 (Control); HEp-2, Lineage 1): 90 nM | EC50 (RSV ON1 P18 (Control); HEp-2, Lineage 2): 130 nM | EC50 (RSV ON1 P18 (Control); HEp-2, Lineage 3): 130 nM | EC50 (wild-type RSV; human respiratory syncytial virus, 72 h, Wild-type, HEp-2, MOI 0.2, 3 days, FFA, read-out: EC50): 46 ± 10 nM | EC90 (wild-type RSV; human respiratory syncytial virus, HEp-2, Wild-type, EC90 = 9^1/HillSlope*EC50): 190 ± 120 nM | EC50 (wild-type RSV; [10]): 45.6 nM | EC90 (RSV T400A; T400A, EC90 = 9^1/HillSlope*EC50): 4.64 ± 0.44 µM | EC50 (RSV T400A; T400A, HEp-2, MOI 0.2, 3 days, FFA, read-out: EC50): 1520 ± 127 nM | EC50 (RSV T400A; [11]): 1120 nM | EC90 (RSV F488L; EC90 = 9^1/HillSlope*EC50): 1900 ± 160 nM | EC50 (RSV F488L; HEp-2, MOI 0.2, 3 days, FFA): 700 ± 69 nM | RSV load in murine infection model (RSV): dose-dependent reduction in the RSV load | EC90 (RSV K399N; K399N, EC90 = 9^1/HillSlope*EC50): 1550 ± 277 nM | EC50 (RSV K399N; K399N, HEp-2, MOI 0.2, 3 days, FFA, read-out: EC50): 450 ± 32 nM | EC50 (RSV K399N; [12]): 406 nM | EC90 (RSV K394R; K394R, EC90 = 9^1/HillSlope*EC50): 15 ± 7.33 µM | EC50 (RSV K394R; K394R, HEp-2, MOI 0.2, 3 days, FFA, read-out: EC50): 5.13 ± 1.69 µM | EC50 (RSV K394R; [13]): 3.84 µM | EC50 ([3]; HEp-2, Lineage 1): 3.36 µM | EC50 ([3]; HEp-2, Lineage 2): 4.1 µM | EC50 ([3]; HEp-2, Lineage 3): 3.5 µM | EC90 (RSV V127G; EC90 = 9^1/HillSlope*EC50): 177 ± 38 nM | EC50 (RSV V127G; HEp-2, MOI 0.2, 3 days, FFA): 44 ± 5 nM | EC50 (RSV A2 P18 (Control); HEp-2, Lineage 1): 40 nM | EC50 (RSV A2 P18 (Control); HEp-2, Lineage 2): 50 nM | EC50 (RSV A2 P18 (Control); HEp-2, Lineage 3): 40 nM | effect on F protein levels (RSV F protein [4]): did not affect F protein levels | EC50 ([5]; HEp-2, Lineage 1): 800 nM | EC50 ([5]; HEp-2, Lineage 2): 1080 nM | EC50 ([5]; HEp-2, Lineage 3): 790 nM

Cc1ccc2nc(N3CCS(=O)(=O)c4ccccc4C3)nc(NCC3(N)COC3)c2c1 [AK0529]
EC50 (wild-type RSV; [10]): 1.3 nM | EC50 (RSV T400A; [11]): 9850 nM | Fold resistance (RSV T400A) (RSV T400A): 7,491.3 | EC50 (RSV K399N; [12]): 2250 nM | Fold resistance (RSV K399N) (RSV K399N): 1,713.3 | EC50 (RSV K394R; [13]): 6.55 µM | Fold resistance (RSV K394R) (RSV K394R): 4,983.3

Cc1cn2nc([C@@H]3CCCCN3C(=O)c3cc(Cl)ccc3NS(C)(=O)=O)cc2nc1N1CC[C@H](N)C1 [GS-5806]
EC50 (wild-type RSV; [10]): 0.1 nM | EC50 (RSV T400A; [11]): 28.8 nM | Fold resistance (RSV T400A) (RSV T400A): 250.1 | EC50 (RSV K399N; [12]): 4.4 nM | Fold resistance (RSV K399N) (RSV K399N): 38.3 | EC50 (RSV K394R; [13]): 0.193 µM | Fold resistance (RSV K394R) (RSV K394R): 1,673.9

NCc1ccc2c(c1)nc(CN1C(=O)C3(CC3)c3ccc(F)cc31)n2CCCC(F)(F)F [RV521]
EC50 (wild-type RSV; [10]): 0.1 nM | EC50 (RSV T400A; [11]): 12.6 nM | Fold resistance (RSV T400A) (RSV T400A): 173.6 | EC50 (RSV K399N; [12]): 0.4 nM | Fold resistance (RSV K399N) (RSV K399N): 5.4 | EC50 (RSV K394R; [13]): 0.179 µM | Fold resistance (RSV K394R) (RSV K394R): 2,462.8

CS(=O)(=O)CCCn1c(Cn2c(=O)n(CC(F)(F)F)c3ccncc32)cc2cc(Cl)ccc21 [JNJ-53718678]
EC50 (wild-type RSV; wild-type RSV, Table 2 cross-resistance experiment, HEp-2, read-out: EC50 RSV): 0.7 nM | EC50 (RSV T400A; [11]): 11600 nM | Fold resistance (RSV T400A) (RSV T400A): 17,920.3 | EC50 (RSV K399N; [12]): 248 nM | Fold resistance (RSV K399N) (RSV K399N): 382.2 | EC50 (RSV K394R; [13]): 10.1 µM | Fold resistance (RSV K394R) (RSV K394R): 15,582.2

O=C1CCC(N2C(=O)c3cccc(NCCOCCOCCOCCC(=O)N4CCC(CC(=O)N5CCC([C@H]6c7ncc(Br)cc7CCc7cc(Cl)cc(Br)c76)CC5)CC4)c3C2=O)C(=O)N1 (stereo partly drawn) [compound 0179841, 4-((2-(2-(2-(3-(4-(2-(4-((R)−3,10-dibromo-8-chloro-6,11-dihydro-5H-benzo[5,6]cyclohepta[1,2-b]pyridin-11-yl)piperidin-1-yl)−2-oxoethyl)piperidin-1-yl)−3-oxopropoxy)ethoxy)ethoxy)ethyl)amino)−2-(2,6-dioxopiperidin-3-yl)isoindoline-1,3-dione]
EC50 (RSV A2 [1]): 450 ± 40 nM | CC50 (in vitro): > 100 µM | EC50 (RSV ON1): 460 ± 30 nM | RSV infection level (GFP intensity) (RSV ON1-GFP [6]): significant decrease in the RSV infection level | reduction of viral titers compared with the DMSO control (RSV ON1-GFP [7]; 5 µM, TCID50 of supernatant): more than 100 fold | viral loads and protein expression in lung airway organoids (RSV ON1-GFP [7]; 5, 1, 0.5 µM): significantly reduced viral loads and protein expression in a dose-dependent manner | inhibition of RSV-induced cell-cell fusion activity (RSV A2 [8]): significantly inhibited | degradation of the F protein during RSV infection (RSV F protein [9]): induced significant degradation of the F protein | effect on F protein levels (RSV F protein [4]): time- and concentration-dependent
